# Columns and labels:
# [1] = molecular target: E3 ubiquitin-protein ligase CBL-B (Homo sapiens, UniProt Q13191); assay: Inhibition of N-terminal Avi-tagged human CBL-B (36 to 427 residues) incubated with 60 nM Src kinase for 1.5 hrs followed by incubation with fluorescently labeled UbcH5B-Ub for 1 hr and measured by TR-FRET assay; format: single protein
# [2] = Induction of anti-CD3/CD28 antibodies-stimulated human T cell activation at 4 uM assessed fold increase in IL-2 secretion measured by ELISA assay; format: functional, T cell line
# [3] = Induction of anti-CD3/CD28 antibodies-stimulated human T cell activation at 1 uM assessed fold increase in IL-2 secretion measured by ELISA assay; format: functional, T cell line
# [4] = Induction of anti-CD3/CD28 antibodies-stimulated human T cell activation at 0.3 uM assessed fold increase in IL-2 secretion measured by ELISA assay; format: functional, T cell line
# [5] = Induction of anti-CD3 antibodies-stimulated human T cell activation at 8 uM assessed fold increase in IL-2 secretion measured by ELISA assay; format: functional, T cell line; further: reference of the scale not given here
# [6] = Induction of anti-CD3 antibodies-stimulated human T cell activation at 1 uM assessed fold increase in IL-2 secretion measured by ELISA assay; format: functional, T cell line; further: reference of the scale not given here
# [7] = Induction of anti-CD3/CD28 antibodies-stimulated human T cell activation at 4 uM assessed fold increase in CD25 expression measured by ELISA assay; format: functional, T cell line
# [8] = Induction of anti-CD3/CD28 antibodies-stimulated human T cell activation at 1 uM assessed fold increase in CD25 expression measured by ELISA assay; format: functional, T cell line
# [9] = Induction of anti-CD3/CD28 antibodies-stimulated human T cell activation at 0.3 uM assessed fold increase in CD25 expression measured by ELISA assay; format: functional, T cell line
# [10] = Induction of anti-CD3 antibodies-stimulated human T cell activation at 8 uM assessed fold increase in CD25 expression measured by ELISA assay; format: functional, T cell line; further: reference of the scale not given here
# [11] = Induction of anti-CD3 antibodies-stimulated human T cell activation at 1 uM assessed fold increase in CD25 expression measured by ELISA assay; format: functional, T cell line; further: reference of the scale not given here
# E3 ubiquitin-protein ligase CBL-B, sequence (Q13191 whole entry, the tested form may be a part): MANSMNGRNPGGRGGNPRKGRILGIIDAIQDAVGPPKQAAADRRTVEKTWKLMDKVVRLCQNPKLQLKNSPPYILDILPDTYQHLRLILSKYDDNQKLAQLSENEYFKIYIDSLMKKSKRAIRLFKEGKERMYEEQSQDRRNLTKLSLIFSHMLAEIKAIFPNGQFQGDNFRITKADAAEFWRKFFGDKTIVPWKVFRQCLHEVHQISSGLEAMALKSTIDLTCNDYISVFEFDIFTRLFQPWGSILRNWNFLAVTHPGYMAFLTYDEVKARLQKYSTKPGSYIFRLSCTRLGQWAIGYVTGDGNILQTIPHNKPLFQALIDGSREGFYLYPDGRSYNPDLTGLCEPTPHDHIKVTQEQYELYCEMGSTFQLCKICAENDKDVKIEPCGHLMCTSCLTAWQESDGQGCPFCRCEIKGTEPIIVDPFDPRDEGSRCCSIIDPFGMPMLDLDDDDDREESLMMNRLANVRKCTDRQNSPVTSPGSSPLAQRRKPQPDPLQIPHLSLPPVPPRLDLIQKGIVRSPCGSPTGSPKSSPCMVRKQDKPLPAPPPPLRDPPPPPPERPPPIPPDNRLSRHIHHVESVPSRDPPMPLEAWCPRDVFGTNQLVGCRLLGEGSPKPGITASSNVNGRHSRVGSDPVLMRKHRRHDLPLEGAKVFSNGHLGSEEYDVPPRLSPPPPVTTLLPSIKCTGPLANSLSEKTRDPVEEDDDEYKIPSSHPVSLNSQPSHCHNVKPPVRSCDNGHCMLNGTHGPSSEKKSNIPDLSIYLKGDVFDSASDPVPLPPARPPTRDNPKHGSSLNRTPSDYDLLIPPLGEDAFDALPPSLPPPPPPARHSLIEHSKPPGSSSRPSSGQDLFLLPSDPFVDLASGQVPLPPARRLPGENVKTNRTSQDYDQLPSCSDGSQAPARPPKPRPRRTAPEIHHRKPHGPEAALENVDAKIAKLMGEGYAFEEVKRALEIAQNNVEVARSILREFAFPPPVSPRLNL
Compound,IC50 [1] [nM],fold change (FC) [2],fold change (FC) [3],fold change (FC) [4],fold change (FC) [5],fold change (FC) [6],fold change (FC) [7],fold change (FC) [8],fold change (FC) [9],fold change (FC) [10],fold change (FC) [11]
C[C@H](Cc1nncn1C)c1cccc(N2Cc3c(cc(C(=O)N4CC[C@H](O)C4)cc3C3CC3)C2=O)c1,< 100,2.51,2.51,1.01,0.101,0.051,1.31,1.01,1.01,>=1.001,0.801
C[C@H](Cc1nncn1C)c1cc(NC2COC2)nc(N2Cc3c(cccc3C(F)(F)F)C2=O)c1,< 100,5,1.01,1.01,>=0.201,0.051,1.31,1.01,1.01,>=1.001,0.801
C[C@H](Cc1nncn1C)c1cccc(N2Cc3c(cc(C4CC4)cc3C(F)(F)F)C2=O)c1,< 100,2.51,1.01,1.01,>=0.201,>=0.201,1.31,1.01,1.01,>=1.001,0.801
"C[C@H](Cc1nncn1C)c1cccc(N2Cc3c(cc([C@H]4CCCNC4)cc3C(F)(F)F)C2=O)c1 (single isomer, unassigned)",< 100,>=7.5,5,2.51,>=0.201,>=0.201,1.51,1.51,1.31,>=1.001,0.801
Cn1cnnc1CC1(c2cccc(N3Cc4c(cc(CN5CCCC5=O)cc4C(F)(F)F)C3=O)c2)COC1,< 100,2.51,1.01,1.01,>=0.201,0.151,1.01,1.01,1.01,>=1.001,>=1.001
"Cn1cnnc1[C@H](F)C(C)(F)c1cccc(N2Cc3c(cccc3C(F)(F)F)C2=O)c1 (single isomer, unassigned)",< 100,1.01,1.01,1.01,0.101,<=0.05,1.01,1.01,1.01,0.801,0.601
Cn1cnnc1CC1(c2cccc(N3Cc4c(cc(CO)cc4C(F)(F)F)C3=O)c2)COC1,< 100,>=7.5,5,2.51,0.051,0.101,1.51,1.31,1.01,0.601,0.601
C[C@H](Cc1nncn1C)c1cccc(N2Cc3c(cc(-c4ccn[nH]4)cc3C(F)(F)F)C2=O)c1,< 100,>=7.5,5,2.51,>=0.201,>=0.201,1.31,1.31,1.01,>=1.001,>=1.001
